# Results from patent publication US10920265B2, “Compounds and methods for detection of enzymes that remove methyl succinyl groups from epsilon-amino lysine moieties” (Enzo Life Sciences, Inc., priority 2011, dated 2021).
# Biological target: T1, bovine pancreatic trypsin (Bos taurus, UniProt P00760)
# T1 construct: purchased ENZO Life Sciences BML-KI105 or BML-KI176; host or cells: bovine pancreas
# T1 sequence (P00760 24-246): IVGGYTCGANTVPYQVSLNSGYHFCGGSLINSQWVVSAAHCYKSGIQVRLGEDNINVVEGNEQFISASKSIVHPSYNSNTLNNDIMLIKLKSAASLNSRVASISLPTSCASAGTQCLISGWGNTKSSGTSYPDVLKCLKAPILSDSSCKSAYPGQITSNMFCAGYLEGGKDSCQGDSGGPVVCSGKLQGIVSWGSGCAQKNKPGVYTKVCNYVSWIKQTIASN
# Test: Trypsin release of AMC from lysyl-AMC compounds
# Assay type: biochemical
# Settings: 1 μM compound, trypsin 2 mg/ml, room temperature
# Protocol: FIG. 2 is a graph showing that trypsin treatment releases fluorescent AMC from Ac-Lys-AMC but not Ac-Lys(Succinyl)-AMC. Samples (100 μl) of 1 μM Ac-Lys-AMC and 1 μM Ac-Lys(Succinyl)-AMC in a buffered solution (50 mM Tris/HCl, pH 8.0, 137 mM NaCl, 2.7 mM KCl, 1 mM MgCl2) were treated with bovine pancreatic trypsin (2 mg/ml) for the indicated times at room temperature. Samples were in the wells of a 96-well, ½-area white microplate and fluorescence was measured at 1 min. intervals at the excitation and emission wavelengths for free AMC (Excitation: 360 nm; Emission: 460 nm) in a Synergy 2 microplate reading fluorimeter (BioTek), Gain 40. The data points at 0 min. represent the fluorescence of equivalent 1 μM Ac-Lys(Succ.)-AMC and 1 μM Ac-Lys-AMC samples in the absence of trypsin.
# As noted in the Background of the Invention section above, the protease trypsin catalyzes the hydrolytic cleavage of amide bonds on the carboxyl side of unmodified lysine residues. Hydrolytic cleavage of lysyl amide bonds with AMC or rhodamine 110 (dye components of Compounds 1 and 2, respectively) releases the free amino forms of the dyes. This elicits an upward shift of the dye's fluorescence emission peak wavelength (bathochromic shift), for example to 460 nm for AMC or 530 nm for rhodamine 110. If succinylation of the ε-amino function of the lysine moieties in compounds such as 1 and 2 renders the amide bond between the carbonyl of lysine and the amino of dye groups such as AMC or rhodamine resistant to trypsin cleavage then, upon desuccinylation, the lysine/dye amide bond would become cleavable by trypsin. Note that removal of a single succinyl group from 2, followed by cleavage of the desuccinylated lysine would yield a compound with a single free amino function, Ac-K(Succ.)-R110. Monoamides of rhodamine 110 also have increased fluorescence emission at 530 nm relative to 2, although they are less fluorescent than rhodamine 110 itself (Liu et al., 1999). Thus, monitoring the fluorescence at the peak wavelength of the amino form of the dye would allow the desuccinylation reaction to be quantified. A schematic for such an assay is depicted for Compound 1 and SIRT5 in FIG. 1. Trypsin treatment (2 mg/ml) elicits an immediate increase in the fluorescence of a solution of Ac-Lys-AMC (Compound 6—FIG. 1) at the excitation and emission wavelengths of free AMC (Ex. 360 nm; Em. 460 nm), with maximum fluorescence achieved in 2 min. or less and ˜⅔ of that maximum occurring in 1 min. (FIG. 2).
smiles,measurement,setting,value
"CC(=O)N[C@@H](CCCCNC(=O)CCC(=O)O)C(=O)Nc1ccc2c(C)cc(=O)oc2c1 [Compound 1, N—(N^α-acetyl-L-Lysine(N^ε-succinyl))-AMC]",Trypsin cleavage / change in fluorescence,,complete resistance to the trypsin cleavage
same,Trypsin cleavage / change in fluorescence,listed as Ac-Lys(Succ.)-AMC,no change in fluorescence
